Series [1] has as its system MUTU-1 Burkitt's lymphoma cell line. As to the kind of experiment: FITC Annexin V/PI FACS analysis of apoptosis in MUTU-I cells. In kind it is cell-based. The settings on record: 24 h. How it is done: (§1) BL cells DG-75 and MUTU-1 (750,000) were treated with the specified concentration of the selected compound and incubated for 24 h (MUTU-1) or 48 h (DG-75) with taxol as the positive control. Samples were harvested by centrifugation and the pellets were rinsed with 0.5 mL of Ca^2+ Annexin V binding buffer (0.1 M HEPES, pH 7.4; 1.4 M NaCl; 25 mM CaCl2) each and pelleted again by centrifugation. Supernatants were decanted and the pellets were suspended again in 50 µL FITC Annexin V (diluted 1:33 in Ca^2+ Annexin V binding buffer), the samples were then placed on ice and incubated for 10 min in the dark. After the incubation period 0.5 mL of Ca^2+ Annexin V binding buffer was added and samples were pelleted by centrifugation. The supernatant was decanted and the pellet was suspended in PI solution (500 µL; 0.5 µg/mL). After 1 h, the samples were recorded using a CyAn ADP flow cytometer (Beckman Coulter Inc., Brea, CA, USA). 10,000 cells were analysed with the Flowjo software package. Taxol was used as a positive control for cell death.

Series [2] has as its system DG-75 Burkitt's lymphoma cell line. In words: FITC Annexin V/PI FACS analysis of apoptosis in DG-75 cells. The class given is cell-based. The note with it: 48 h. How it is done: as §1
For the next series, the system named is DG-75 cell line. As to the kind of experiment: Lactate dehydrogenase (LDH) release cytotoxicity assay in DG-75 cells. The class given is cell-based. The settings on record: percentage of total LDH release. How it is done:
(§2) The CytoTox 96 non-radioactive cytotoxicity assay (Promega Corporation; 2800 Woods Hollow Road, Madison, WI, USA) was used to determine the cyctotoxicity of selected compounds. BL cells were incubated for 24 hr and then treated with the selected compounds (at 10 μM concentration) 15, 16b and 16c as in the cell viability assay. After 24 or 48 h as appropriate, the lysis solution (10X), (20 μL) was added. The cells were incubated for a further 1 h to ensure complete death. The supernatant (50 μL) was removed and transferred to a new 96-well plate. “Substrate mix″ (50 μL) was added and the plate was retained in the dark at RT for 30 min. “Stop solution″ (50 μL) was added to each well and the absorbance was recorded at 490 nm with a Dynatech MR5000 plate reader and the cell death was calculated.

A short description of series [3]: Viability of peripheral blood mononuclear cells (alamarBlue). The class given is cell-based. The note with it: human, peripheral blood mononuclear cells (PBMCs); for viability at 24 h, 0.5 µM: read-out: viable PBMCs at 0.5 µM; for viability at 24 h, 1 µM: read-out: viable PBMCs at 1 µM. The protocol: BL cells were seeded in a 96-well plate (1–5 × 10^4 cells per 200 µL in well). Cells were treated with the desired drug concentration for a predetermined time frame and incubated as required. alamarBlue (20 µL) was added to each well and the cells were incubated at 37 °C in the dark for 4 h. Plates were then recorded on a fluorescence plate reader (SpectraMax Gemini, Molecular Devices) at 544 nm (excitement) and 590 nm (emission). Experiments were performed in triplicate using controls of reagent, medium and vehicle (100% viability). Taxol (10 μM) was used as the control drug (90% cytotoxicity) for both cell lines. The experiments were performed in triplicate and the mean value for three independent experiments was calculated.
Blood was obtained from healthy donors (n = 2) after informed consent was received. The blood was then placed into a 50 mL falcon tube and diluted with phosphate-buffered saline (PBS), 1:2. The blood was separated into red blood cells, white blood cell ring and serum using LymphoPrep. The blood was slowly added to Ficoll pague plus (20 mL). The tubes containing the blood were then centrifuged for 30 min at 1700 g. Following transfer of the white blood cell ring to a new 50 mL tube, the volume was adjusted to 50 mL. The samples were again centrifuged for 10 min at 1700 g. The, supernatant liquid was removed; and this step was repeated. The resultant pellet was then resuspended in 10 mL of complete Iscove’s Modified Dulbecco’s (IMDM) media (10% FBS, 0.1% Ciprofloxacin (10 mg/mL)) for use in the cell viability experiments.

A further series has as its system DG-75 cells. In words: Effect of NAC antioxidant pre-treatment on viability of DG-75 cells (alamarBlue). In kind it is cell-based. The settings on record: Homo sapiens, 1 µM compound, 48 h, no NAC, read-out: viable DG-75 cells without NAC. The protocol:
Cell proliferation of DG-75 cells was determined with an alamarBlue assay (seeding density 2 × 10^4 cells/mL per well for 96-well plates), with vehicle control ethanol 1% (v/v). Cells were retained for 24 h and then pre-treated with NAC (5 mM) for 1 h, followed by compounds 15, 16b and 16c at 1 μM for 48 h. Cell viability was measured by alamarBlue assay (mean of three independent experiments).
N-Acetylcysteine (Sigma) was dissolved in sterile water (100 mM). Fresh solutions were prepared for each experiment. A 96 well plate was seeded with 2 × 10^4 cells/well for DG-75 cells. After 23 h, the DG-75 cells were then pre-treated with NAC (5 mM) for 1 h before compound treatment. The wells were then treated with the desired drug concentration (1 µM) for a predetermined time frame (48 h). After treatment and incubation, each well was treated with 20 µL of alamarBlue (37 °C) and the plate was incubated in the dark at 37 °C for 4–6 h. Fluorescence of the 96 well plates was then recorded at 590 nm (excitation 544 nm), as described for ‘alamarBlue viability assay’ (above). The percentage of viable cells remaining with NAC pre-treatment was compared to the percentage of viable cells remaining without NAC pre-treatment in order to determine the implication of ROS in the mechanism of cell death induced.

For series [4], the system named is MUTU-1 Burkitt lymphoma cell line (EBV+). In words: cells. The note with it: Mutu-1, 24 h; for IC50: read-out: IC50 MUTU-I 24 h; for viability at 1 µM: read-out: MUTU-1 Cell Viability % 1 μM, 1 μM, 24 h; for viability at 10 µM: read-out: MUTU-1 Cell Viability % 10 μM, 10 μM, 24 h.
For series [5], the system named is DG-75 Burkitt lymphoma cell line (EBV−, chemoresistant). In words: cells. The note with it: Homo sapiens, DG-75, 48 h; for viability at 1 µM: read-out: DG-75 Cell Viability % 1 μM, 1 μM, 48 h; for viability at 10 µM: read-out: DG-75 Cell Viability % 10 μM, 10 μM, 48 h; for IC50: read-out: IC50 DG-75 48 h.
For series [6], the system named is MUTU-1 Burkitt lymphoma cell line (EBV+). The note with it: 1 μM, 24 h.
Series [7] relates to DG-75 Burkitt lymphoma cell line (EBV−, chemoresistant). The note with it: 1 μM, 48 h.
A short description of series [8]: HPLC stability study in phosphate buffers. The class given is physicochemical. The protocol: The HPLC stability studies for compound 16a were performed using a Symmetry® column (C18, 5 µm, 4.6 × 150 mm), detector Waters 2487 Dual Wavelength Absorbance, HPLC pump: Waters 1525 binary and Autosampler: Waters 717 plus (Waters Corporation, Milford, MA, USA). Samples were detected at wavelength of 254 nm. The chromatography was performed with the following optimised conditions: mobile phase: (acetonitrile (80%): water (20%)), run time: 10 min, flow rate: 1 mL/min, with detection at 254 nm. Compound 16a (5 mg) was dissolved in the mobile phase (10 mL) to provide the stock solution for the experiment. The phosphate buffers were prepared following the British Pharmacopoeia monograph 2019 at the selected pH 4, pH 7.4 and pH 9. To a volume of the appropriate buffer (1 mL), stock solution (30 μL) was added, and the solution was shaken and then used immediately for the experiment. Samples of the solution were then analysed over the following 48 h period at selected time intervals (t = 0 min, 5 min, 30 min, 60 min, 90 min, 120 min, 24 h and 48 h).

Another series deals with MUTU-I cell line. As to the kind of experiment: Lactate dehydrogenase (LDH) release cytotoxicity assay in MUTU-I cells. In kind it is cell-based. The settings on record: percentage of total LDH release. How it is done: as §2

Read-outs that look alike come from different tables or passages of the source.

The source of these data is PMC7168933, “Design, Synthesis and Biochemical Evaluation of Novel Ethanoanthracenes and Related Compounds to Target Burkitt’s Lymphoma” (Pharmaceuticals, 2020).

Take `COc1ccc(N2C(=O)C3C4c5ccccc5C(/C=C/[N+](=O)[O-])(c5ccccc54)C3C2=O)cc1` (stereo not shown) [Compound 16c, (E)-13-(4-Methoxyphenyl)-9-(2-nitrovinyl)-9,10-dihydro-9,10-[3,4]epipyrroloanthracene-12,14-dione]: the “apoptosis in MUTU-I at 0.5 µM” value in series [1] was more than 90%. Besides, the “apoptosis in DG-75 at 1 µM” value in series [2] is given as 29%. Also, in the series on DG-75 cell line, the “LDH release (cytotoxicity) in DG-75 at 10 µM” value stood at 25%. Besides, in series [3], the viability at 24 h, 0.5 µM is approximately 99% and the viability at 24 h, 1 µM fell in the range of 72 to 81%. In addition, in the series on DG-75 cells, the viability at 1 µM was in the range of 6 to 23%. Also, in series [4], the IC50 is 200 nM, the viability at 1 µM is 0.19% and the viability at 10 µM was determined as 1.1%. For the same compound, in [5], the viability at 1 µM is 28.4%, the viability at 10 µM was determined as 2.1% and the IC50 was determined as 560 nM.
On to `O=C1C2C3c4ccccc4C(/C=C/[N+](=O)[O-])(c4ccccc43)C2C(=O)N1CCCCCCN1C(=O)C2C3c4ccccc4C(/C=C/[N+](=O)[O-])(c4ccccc43)C2C1=O` (stereo not shown) [Compound 15, 13,13′-(Hexane-1,6-diyl)bis(9-((E)-2-nitrovinyl)-9,10-dihydro-9,10[3,4]epipyrroloanthracene-12,14-dione)], for which the “apoptosis in MUTU-I at 0.2 µM” value in series [1] is given as more than 90%. Besides, in series [2], the “apoptosis in DG-75 at 10 µM” value is given as 95%. In series [3], the viability at 24 h, 0.5 µM was approximately 99% and the viability at 24 h, 1 µM is 72 to 81%. Besides, in the series on DG-75 cells, the viability at 1 µM lay within 6 to 23%. Moreover, the “MUTU-1 Cell Viability % 1 μM” value in series [6] is given as 4.5%. For the same compound, the “DG-75 Cell Viability % 1 μM” value in series [7] came out at 3.8%. Besides, in [4], the IC50 is 90 nM, the viability at 1 µM was less than 5% and the viability at 10 µM was found to be 2.1%. In series [5], the viability at 1 µM was less than 5%, the viability at 10 µM is 0% and the IC50 is 240 nM.
`O=C1C2C3c4ccccc4C(C=C[N+](=O)[O-])(c4ccccc43)C2C(=O)N1c1ccccc1` (stereo not shown) [Compound 16a, (E)-9-(2-Nitrovinyl)-13-phenyl-9,10-dihydro-9,10-[3,4]epipyrroloanthracene-12,14-dione]: the “apoptosis in MUTU-I at 0.2 µM” value in series [1] is given as 46%. Further, the “apoptosis in MUTU-I at 0.5 µM” value in series [1] is reported as “over 80%”. Also, the “apoptosis in MUTU-I at 1 µM” value in [1] (1 µM) is recorded as “over 80%”. Further, the “apoptosis in MUTU-I at 10 µM” value in series [1] (10 µM) is “over 80%”. Moreover, the “apoptosis in DG-75 at 10 µM” value in series [2] was determined as 92%. Besides, the “apoptosis in DG-75 at lower concentrations” value in series [2] (concentrations lower than 10 µM) is less than 5%. Further, the half-life at 14.6 µg/mL is 11 h in series [8] (pH 4 phosphate buffer, read-out: half-life (t½) at pH 4 (converted)); 10.5 h in series [8] (pH 7.4 phosphate buffer, read-out: half-life (t½) at pH 7.4 (converted)); more than 24 h in series [8] (pH 9 phosphate buffer, read-out: half-life (t½) at pH 9). For the same compound, the “MUTU-1 Cell Viability % 1 μM” value in series [6] is reported as 10.3%. In addition, in series [7], the “DG-75 Cell Viability % 1 μM” value was less than 6%. Further, the IC50 in series [4] came out at 210 nM; in [5], 710 nM. Also, the viability at 1 µM in [4] amounted to 10%. Further, the viability at 10 µM in series [4] stood at 1.4%; in [5], 1.1%.
Turning to `O=C1C2C3c4ccccc4C(C=C[N+](=O)[O-])(c4ccccc43)C2C(=O)N1c1ccc(Cl)cc1` (stereo not shown) [Compound 16b, (E)-13-(4-Chlorophenyl)-9-(2-nitrovinyl)-9,10-dihydro-9,10-[3,4]epipyrroloanthracene-12,14-dione], the “apoptosis in MUTU-I at all concentrations” value in [1] (all concentrations (0.2–10 µM)) is “over 80%”. In addition, in [2], the “apoptosis in DG-75 at 1 µM” value worked out at 61%. Besides, in the series with MUTU-I cell line (1 µM), the “LDH release (cytotoxicity) in MUTU-I at 1 µM” value is recorded as 5%. For the same compound, in the series with MUTU-I cell line (10 µM), the “LDH release (cytotoxicity) in MUTU-I at 10 µM” value was 2%. Besides, in series [3], the viability at 24 h, 0.5 µM is approximately 99% and the viability at 24 h, 1 µM was 72 to 81%. The viability at 1 µM in the series with DG-75 cells lay in the range of 6 to 23%. The “DG-75 Cell Viability % 1 μM” value in series [7] was 5.5%. For the same compound, in series [4], the IC50 worked out at 170 nM, the viability at 1 µM was determined as 5% and the viability at 10 µM amounted to 0.38%. Moreover, in series [5], the viability at 1 µM was less than 6%, the viability at 10 µM came to 0.52% and the IC50 was determined as 450 nM.
